Test results published in a melting point compilation (Tetko et al.).

Row | SMILES | melting point [°C]
1 | CC(C)(C)n1ncc2c(=O)[nH]c(Cl)nc21 | 191 to 193
2 | ClCc1nnc(-c2cccc(Br)c2)o1 | 74 to 76
3 | OCc1noc(-c2cccc(Cl)c2)n1 | 103 to 105
4 | Cc1ccc(S)nc1 | 199 to 201
5 | Cc1cccc(NC(=O)NCC(=O)O)c1 | 182 to 184
6 | NS(=O)(=O)c1cccc(N2CC(C(=O)O)CC2=O)c1 (configuration not stated) | 168 to 170
7 | CC(C)Cc1nc(N)sc1C(=O)O | 149 to 151
8 | O=C1CCN(C(=O)c2ccccc2Cl)CC1 | 107 to 109
9 | NCC(Cc1ccc(F)cc1)C(N)=O (configuration not stated) | 119 to 121
10 | N#CC(C(=O)CCl)c1nc(-c2ccccc2)cs1 (configuration not stated) | 215 to 217
11 | Cc1c(I)cccc1C(=O)O | 113 to 115
12 | Cc1cc(Br)cc(C)c1NC(=O)CCCCl | 139 to 141
13 | CCOC(=O)NC1CCC(O)CC1 (configuration not stated) | 132 to 134
14 | Nc1ccc(-c2csnn2)cc1 | 125 to 127
15 | NC(=O)c1cccc(CO)c1 | 113 to 115
16 | O=C(O)c1c[nH]c(=O)cn1 | 265 to 267
17 | Nc1nc(-c2ccccc2Cl)c(-c2ccccc2Cl)s1 | 198 to 200
18 | CCCCCC(=O)Nc1cc(OC)c(OC)cc1C(=O)O | 178 to 180
19 | CC(=O)c1cc(C#N)c(S)nc1C | 127 to 129
20 | NNC(=O)c1cccc(S(=O)(=O)Nc2ccc(Cl)cc2)c1 | 191 to 193
21 | O/N=C(/Cc1nc2ccccc2n1C(F)F)c1ccccc1 | 165 to 167
22 | NNc1ccccc1S(=O)(=O)N1CCOCC1 | 141 to 143
23 | CSc1nc(Cl)cc(NN)n1 | 154 to 156
24 | CNC(=O)c1ccc(Cl)cc1N | 93 to 95
25 | O=C1NCCNC1(O)C(F)(F)F (configuration not stated) | 144 to 146

Row | SMILES | melting point [°C]
26 | Cc1ccc(C(=O)N(C)C)cc1N | 97 to 99
27 | CC(C)N1CCN(C2CCNCC2)CC1 | 49 to 51
28 | O=C(O)CSc1nnc(-c2ccco2)o1 | 152 to 155
29 | CC(C)COC(=O)N1CCC(C(=O)O)CC1 | 69 to 71
30 | Cc1ccc(NS(=O)(=O)c2ccsc2C(=O)O)cc1 | 192 to 194
31 | CSCCC(NC(N)=O)C(=O)O (configuration not stated) | 141 to 143
32 | O=C(O)c1ccc(S(=O)(=O)c2ccccc2)s1 | 192 to 194
33 | Cc1nn(CCO)c2ncc(Br)cc12 | 110 to 112
34 | CC1(C)NC(=O)N(CC#N)C1=O | 155 to 157
35 | CN1CCN(c2ccc(C#N)cn2)CC1 | 67 to 69
36 | CC(=O)c1ccc(OC2CCCCC2)cc1 | 74 to 76
37 | Cn1ncc([N+](=O)[O-])c1C(=O)O | 159 to 161
38 | CC(C)(C(=O)O)c1ccc(N)cc1 | 165 to 167
39 | CN(C)C=C1C(=O)CCCC1=O | 111 to 113
40 | Cc1cc(Br)c(N)cc1[N+](=O)[O-] | 115 to 117
41 | O=C(O)c1nc(=O)[nH][nH]1 | 202 to 204
42 | O=CC1=C(Sc2nc3ccccc3o2)CCCC1 | 93 to 95
43 | CNC(=O)Cn1ccc2ccc(N)cc21 | 134 to 136
44 | CC(=O)c1cc(C(=O)O)n(C)c1 | 177 to 181
45 | O=C(O)CCCCc1ccc(Br)cc1 | 90 to 92
46 | CC(C(=O)O)S(=O)(=O)c1ccc(F)cc1 (configuration not stated) | 117 to 119
47 | CC(C)c1noc(-c2cc(Cl)ccc2N)n1 | 93 to 95
48 | CN(C)c1ncnc2cc(C(=O)O)ccc12 | 323 to 325
49 | O=S(=O)(Cl)c1cc(Cl)cc2c1OCC2 | 105 to 107
50 | CCOC(=O)C(NC(=O)C(C)C)C(=O)OCC | 75 to 77

Row | SMILES | melting point [°C]
51 | COc1ccc(CNC(=O)c2c[nH]nc2N)cc1 | 196 to 198
52 | O=C(O)c1cc2c(F)cccc2s1 | 214 to 216
53 | c1ccc(NCc2ccc3c(c2)OCO3)cc1 | 78 to 80
54 | Nc1nnc(Cc2ccc(F)cc2)o1 | 169 to 171
55 | Cc1nn(-c2ccccc2F)c(C)c1N | 59 to 61
56 | CCc1ccnc(C(=O)O)c1 | 109 to 111
57 | OCCNc1ccccn1 | 64 to 66
58 | CC(C)CNC(=O)c1cc(N)ccc1Cl | 109 to 111
59 | NC1CCCCNC1=O (configuration not stated) | 54 to 56
60 | N#CC(c1ccc(Br)cc1)N1CCNCC1 (configuration not stated) | 83 to 85
61 | CNC(=O)NC(=O)C(C)Cl (configuration not stated) | 118 to 120
62 | COCCn1cc(C(=O)O)ccc1=O | 185 to 187
63 | Cc1nc(O)c2c(n1)CN(Cc1ccccc1)CC2 | 211 to 213
64 | CSc1nc(C(=O)O)cc(C2CC2)n1 | 135 to 137
65 | Nc1ccc(Cc2nnc3ccccn23)cc1 | 207 to 209
66 | O=C(O)c1ccc(NC(=O)c2ccco2)cc1 | 132 to 134
67 | Cc1nn(C)cc1CCC(=O)O | 114 to 116
68 | Cc1cc(C)c(C#N)c(N2CCCC2)n1 | 54 to 56
69 | NCc1ccc(OCc2ccccc2)cc1 | 51 to 53
70 | CC(NC(N)=S)c1ccccc1 (configuration not stated) | 94 to 96
71 | NCCc1ccccc1O | 107 to 109
72 | O=C(CCl)NCC1CCCc2ccccc21 (configuration not stated) | 114 to 116
73 | NNC(=O)Cc1cn2ccccc2n1 | 128 to 130
74 | Cc1cc(NC(=O)Nc2cc(C)nn2C)n(C)n1 | 209 to 211
75 | O=C(O)Cc1cccc(OC(F)F)c1 | 52 to 54

Row | SMILES | melting point [°C]
76 | c1ccc2c(c1)NCCS2 | 34 to 38
77 | Cc1ccc(C(C)(C)C)cc1S(N)(=O)=O | 138 to 140
78 | Cn1cc(C=O)c(-c2ccc([N+](=O)[O-])cc2)n1 | 175 to 177
79 | Cc1ccc(C(C)C)c2c1C(=O)CCO2 | 36 to 38
80 | COC(C)c1nc(C(=O)O)cs1 (configuration not stated) | 73 to 75
81 | CC(Br)c1cccc2ccccc12 (configuration not stated) | 36 to 38
82 | Cc1cccc(N2N=C(C(=O)O)CCC2=O)c1 | 152 to 154
83 | Cc1ccc(-n2nnnc2S)cc1 | 112 to 114
84 | NCc1cccc(N2CCOC2=O)c1 | 93 to 95
85 | OCc1c(Cl)ccc2cccnc12 | 93 to 95
86 | COc1ccc(S(=O)(=O)NC2CCOCC2)cc1N | 164 to 166
87 | CCCOc1ccc2[nH]cc(C=O)c2c1 | 139 to 141
88 | O=C1NC(=O)C(Cc2ccc(O)cc2)N1 (configuration not stated) | 267 to 269
89 | CC(C)(C)CC(=O)NCC(=O)O | 106 to 108
90 | CN(C)S(=O)(=O)c1ccc(S(=O)(=O)Cl)cc1 | 134 to 136
91 | O=C(O)CSc1ncnc2scc(-c3ccccc3)c12 | 186 to 188
92 | O=C(O)c1cc(-c2ccccc2)n(-c2ccccn2)n1 | 194 to 196
93 | CN(C)c1nc(CC#N)nc(=N)[nH]1 | 139 to 141
94 | COc1ccc2c(-c3cccnc3)cc(S)nc2c1 | 269 to 271
95 | Cc1c(C(F)(F)F)cccc1S(N)(=O)=O | 149 to 151
96 | O=C(O)c1cc(S(=O)(=O)Cl)c(F)cc1Br | 148 to 150
97 | CC(CO)NC(=O)C1=Cc2cc(Br)ccc2OC1 (configuration not stated) | 157 to 159
98 | COc1cc(C=CC(=O)O)ccc1OCC#N | 164 to 166
99 | Fc1cccc2c1CN=C1CCCN12 | 71 to 73
100 | CC(C)OC(=O)c1cccc(-c2nn[nH]n2)c1 | 155 to 159

Row | SMILES | melting point [°C]
101 | CCCn1ccnc1S | 119 to 121
102 | CCOC(=O)Nc1cccc(C(=O)O)c1 | 196 to 198
103 | NCC(O)Cc1ccccc1 (configuration not stated) | 67 to 69
104 | O=C(O)c1cc(F)c(F)cc1C(=O)O | 158 to 160
105 | CC(C)C(Br)C(=O)NC(C)(C)C (configuration not stated) | 135 to 137
106 | NC(=O)N1CC=C(c2c[nH]c3ccccc23)CC1 | 199 to 201
107 | CC(C)(C#N)Cc1ccccc1 | 47 to 49
108 | O=C(Nc1ccc(O)cc1)c1ccco1 | 218 to 220
109 | NNC(=O)c1ccoc1 | 128 to 130
110 | COc1cc(C=O)ccc1S | 43 to 45
111 | O=C1CN(S(=O)(=O)c2cccc([N+](=O)[O-])c2)CCN1 | 217 to 219
112 | CC(Nc1ccc(N(C)C)cc1)c1ccccn1 (configuration not stated) | 121 to 123
113 | Nc1ncc2c(n1)CCC1(C2)OCCO1 | 215 to 217
114 | COc1coc(CO)cc1=O | 163 to 165
115 | Cc1cc(S(=O)(=O)Cl)cc([N+](=O)[O-])c1C | 127 to 129
116 | CS(=O)(=O)OC1CCOC2(CCOCC2)C1 (configuration not stated) | 110 to 112
117 | CNc1cc(-c2ccccc2)[nH]n1 | 122 to 124
118 | Clc1ccc(C(Cl)c2ccc(Cl)cc2)cc1 | 57 to 59
119 | O=Cc1ccc(-c2cccc(Br)c2)o1 | 99 to 101
120 | CC(C)Oc1ccc(C(=O)NCC(=O)O)cc1 | 154 to 156
121 | ClCc1coc(-c2ccc(I)cc2)n1 | 129 to 131
122 | O=S(=O)(Cl)c1c(Cl)cc(F)cc1Br | 55 to 57
123 | CNC(=Nc1ccnn1C(C)C)c1ccco1 | 233 to 235
124 | O=C(O)C1Cc2ccccc2CN1C(=O)c1ccco1 (configuration not stated) | 143 to 147
125 | Nc1sc2c(c1C(=O)NCc1ccccc1)CCCC2 | 112 to 114

Row | SMILES | melting point [°C]
126 | CC(C)C(=O)N1CCC(C(=O)O)CC1 | 102 to 104
127 | O=C(O)CCC(=O)NCC(=O)c1ccccc1Cl | 151 to 153
128 | N#Cc1ccc(CNc2ccc3[nH]c(=O)[nH]c3c2)cc1 | 276 to 278
129 | NC(=O)C1CNc2ccccc2N1 (configuration not stated) | 99 to 101
130 | NCCCc1nc2ccccc2[nH]1 | 210 to 212
131 | CN1CCC(NCCO)CC1 | 37 to 39
132 | Cc1nc(-c2ccc(Cl)nc2)[nH]c(=O)c1C | 263 to 265
133 | CC(=O)Nc1cc(C)c(C)cc1[N+](=O)[O-] | 189 to 191
134 | Nc1ccc(Cl)c(-c2nnc3n2CCCCC3)c1 | 284 to 286
135 | NC(=O)c1ccc(Cl)cc1N | 179 to 181
136 | O=C1CCCC1c1ccccc1 (configuration not stated) | 35 to 37
137 | O=C(O)C(F)(F)c1ccc([N+](=O)[O-])cc1 | 129 to 131
138 | NC(=S)NCc1ccc(OC(F)(F)F)cc1 | 120 to 122
139 | CON=Cc1ccc(C(=O)O)cc1 | 183 to 185
140 | OCCNc1ccc(Br)cc1 | 80 to 82
141 | O=C(O)c1ccc(S(=O)(=O)N2CCCC2)cc1 | 243 to 245
142 | CCOC(=O)COc1ccc(C(N)=S)cc1 | 126 to 128
143 | CCn1c(C)cs/c1=N\c1ccc(Cl)cc1 | 190 to 192
144 | CN(C)c1nc2sc(C(=O)O)cc2s1 | 205 to 207
145 | Cc1ccc(-c2nc3c(s2)C(=O)CCC3)cc1 | 128 to 130
146 | O=C(C(=O)c1ccccn1)c1ccccn1 | 154 to 156
147 | CCn1cc(C(=O)O)cn1 | 144 to 146
